IC50 data for 21 compounds are collected here from patent publication US20250236608A1, “EGFR INHIBITORS” (Blueprint Medicines Corporation, priority 2022, published 2025).

pIC50: −log10 of the molar value.

The target of one test is EGFR L858R (Homo sapiens (Human), UniProt P00533, L858R). Briefly: Biochemical EGFR inhibition assay, EGFR L858R. Conditions: Caliper mobility shift; 1.0 mM ATP or ATP Km; read-out: Enz EGFR_L858R IC50.
The target of a further test is EGFR (d746-750) (Homo sapiens (Human), UniProt P00533, DEL746-750). Briefly: Biochemical EGFR inhibition assay, EGFR (d746-750). Conditions: Caliper mobility shift; 1.0 mM ATP or ATP Km; read-out: Enz EGFR_Exon19-del746-750 IC50.
Test [1] has as its target pEGFR (Tyr1068) in PC-9 cells (Ex19Del) (Homo sapiens (Human), UniProt P00533, DEL746-750). Briefly: PC-9 pEGFR AlphaLISA assay. In kind it is cell-based. Particulars: 4 hours incubation, p-EGFR (Tyr1068) AlphaLISA, read-out: Ext pEGFR_PC-9 Ex19Del IC50. The method, boiled down:
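First, cells settled overnight in 10% FBS medium. Second, a 10-point, 4-fold series of test agents was applied for 4 h at 37° C. Third, lysates were probed with AlphaLISA acceptor and donor beads, incubated overnight in the dark. Last, IC50 was taken from the dose-response.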

pEGFR (Tyr1068) in PC-9 cells (Ex19Del), sequence (P00533 other isoform, or with tags, fused parts or gaps del 746-750): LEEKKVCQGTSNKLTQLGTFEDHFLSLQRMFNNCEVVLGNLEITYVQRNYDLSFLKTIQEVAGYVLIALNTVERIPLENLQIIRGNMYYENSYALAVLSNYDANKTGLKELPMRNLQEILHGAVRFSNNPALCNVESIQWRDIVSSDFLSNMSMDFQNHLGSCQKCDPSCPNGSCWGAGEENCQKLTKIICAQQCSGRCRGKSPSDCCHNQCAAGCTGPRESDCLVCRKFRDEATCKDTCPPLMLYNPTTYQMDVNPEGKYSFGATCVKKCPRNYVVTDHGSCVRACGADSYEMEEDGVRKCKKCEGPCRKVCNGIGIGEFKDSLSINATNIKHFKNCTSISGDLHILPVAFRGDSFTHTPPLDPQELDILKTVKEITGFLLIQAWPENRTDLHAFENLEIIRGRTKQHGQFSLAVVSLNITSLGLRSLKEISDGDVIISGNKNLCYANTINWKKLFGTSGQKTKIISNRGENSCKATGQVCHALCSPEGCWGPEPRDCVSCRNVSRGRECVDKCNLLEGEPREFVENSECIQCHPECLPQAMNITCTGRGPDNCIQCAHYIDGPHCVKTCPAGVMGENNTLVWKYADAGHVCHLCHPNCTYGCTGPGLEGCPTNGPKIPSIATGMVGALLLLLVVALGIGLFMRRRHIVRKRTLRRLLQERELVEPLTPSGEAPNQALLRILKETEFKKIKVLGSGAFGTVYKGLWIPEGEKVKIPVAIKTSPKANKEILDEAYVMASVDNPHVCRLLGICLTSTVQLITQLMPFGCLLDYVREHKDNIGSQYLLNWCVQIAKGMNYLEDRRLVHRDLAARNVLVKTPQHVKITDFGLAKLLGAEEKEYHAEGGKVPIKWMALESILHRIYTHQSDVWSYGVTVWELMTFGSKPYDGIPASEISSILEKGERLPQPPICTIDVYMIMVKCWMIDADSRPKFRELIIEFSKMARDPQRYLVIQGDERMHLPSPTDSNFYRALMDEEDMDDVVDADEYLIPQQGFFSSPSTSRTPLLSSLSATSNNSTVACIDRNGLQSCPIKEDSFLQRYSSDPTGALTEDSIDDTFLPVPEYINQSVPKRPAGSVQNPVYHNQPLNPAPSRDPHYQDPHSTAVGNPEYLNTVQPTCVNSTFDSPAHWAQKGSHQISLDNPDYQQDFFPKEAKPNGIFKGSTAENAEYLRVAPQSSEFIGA
EGFR (d746-750), sequence (P00533 other isoform, or with tags, fused parts or gaps del 1-694/del 746-750 limits assumed): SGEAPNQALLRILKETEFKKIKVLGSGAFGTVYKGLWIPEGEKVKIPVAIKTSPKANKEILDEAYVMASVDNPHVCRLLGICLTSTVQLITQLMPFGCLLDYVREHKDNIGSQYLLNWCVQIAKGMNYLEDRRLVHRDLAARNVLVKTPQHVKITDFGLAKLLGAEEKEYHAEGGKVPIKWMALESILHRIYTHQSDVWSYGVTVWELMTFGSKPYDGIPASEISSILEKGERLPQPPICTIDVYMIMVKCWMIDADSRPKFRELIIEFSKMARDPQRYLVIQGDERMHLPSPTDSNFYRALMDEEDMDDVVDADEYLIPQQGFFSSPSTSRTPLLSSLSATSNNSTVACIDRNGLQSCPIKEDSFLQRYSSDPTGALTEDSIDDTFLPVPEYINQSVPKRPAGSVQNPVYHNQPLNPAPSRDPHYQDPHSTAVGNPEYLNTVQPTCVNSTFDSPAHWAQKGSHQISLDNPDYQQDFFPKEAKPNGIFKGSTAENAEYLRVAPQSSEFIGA
EGFR L858R, sequence (P00533 25-1210 L858R): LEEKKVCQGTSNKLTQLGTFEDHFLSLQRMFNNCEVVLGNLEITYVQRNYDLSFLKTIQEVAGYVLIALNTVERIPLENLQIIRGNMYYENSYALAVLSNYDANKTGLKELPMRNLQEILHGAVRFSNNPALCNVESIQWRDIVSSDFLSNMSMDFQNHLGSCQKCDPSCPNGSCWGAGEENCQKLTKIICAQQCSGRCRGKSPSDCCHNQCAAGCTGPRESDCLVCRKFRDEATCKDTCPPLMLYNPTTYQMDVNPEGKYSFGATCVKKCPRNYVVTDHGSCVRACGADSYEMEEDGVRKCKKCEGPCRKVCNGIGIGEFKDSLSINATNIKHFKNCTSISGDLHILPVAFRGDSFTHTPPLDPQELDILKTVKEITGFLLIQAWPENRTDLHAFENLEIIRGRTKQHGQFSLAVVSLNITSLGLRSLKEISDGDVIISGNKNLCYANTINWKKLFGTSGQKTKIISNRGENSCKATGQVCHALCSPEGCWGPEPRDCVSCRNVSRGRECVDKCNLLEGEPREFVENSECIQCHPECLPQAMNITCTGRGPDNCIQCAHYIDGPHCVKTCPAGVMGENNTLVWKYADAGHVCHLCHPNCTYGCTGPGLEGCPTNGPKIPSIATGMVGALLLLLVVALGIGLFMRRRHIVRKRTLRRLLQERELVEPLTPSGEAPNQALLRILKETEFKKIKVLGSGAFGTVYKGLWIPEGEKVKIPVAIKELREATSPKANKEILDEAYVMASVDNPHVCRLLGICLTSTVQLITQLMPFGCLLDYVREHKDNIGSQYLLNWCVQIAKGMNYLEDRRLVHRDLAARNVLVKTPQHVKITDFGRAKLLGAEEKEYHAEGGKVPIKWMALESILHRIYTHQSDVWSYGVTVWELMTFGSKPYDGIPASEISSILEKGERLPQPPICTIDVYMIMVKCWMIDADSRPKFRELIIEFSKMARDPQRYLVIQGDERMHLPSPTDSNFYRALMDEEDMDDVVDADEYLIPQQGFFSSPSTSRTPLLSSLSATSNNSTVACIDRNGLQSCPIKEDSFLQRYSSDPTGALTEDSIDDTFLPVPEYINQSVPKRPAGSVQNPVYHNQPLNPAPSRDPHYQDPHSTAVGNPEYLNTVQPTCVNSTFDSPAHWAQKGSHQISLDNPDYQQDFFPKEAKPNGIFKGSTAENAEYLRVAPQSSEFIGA

As usually defined, the pIC50 is the negative decadic logarithm of the IC50, by convention in mol/L. On to `COc1cc2ncnc(-c3cn(C)nc3-c3ccccc3)c2cc1-c1cccc2[nH]ncc12` [Example 143, 6-(1H-indazol-4-yl)-7-methoxy-4-(1-methyl-3-phenyl-1H-pyrazol-4-yl)quinazoline], for which the pIC50 is 8.35 at EGFR L858R, 8.77 at EGFR (d746-750) and 8.49 in test [1].
Take `COc1cc2ncnc(-c3cn(C)nc3-c3ccccc3)c2cc1-c1cccc2c1nc(CO)n2C` [Example 148, (4-(7-methoxy-4-(1-methyl-3-phenyl-1H-pyrazol-4-yl)quinazolin-6-yl)-1-methyl-1H-benzo[d]imidazol-2-yl)methanol]: the results for the pIC50 (on EGFR L858R; at EGFR (d746-750); in test [1]) were 8.15, 8.52 and 8.08, respectively.
In the case of `COc1cc2ncnc(-c3cn(C)nc3-c3ccccc3)c2cc1-c1cnc(C(C)(C)O)s1` [Example 149, 2-(5-(7-methoxy-4-(1-methyl-3-phenyl-1H-pyrazol-4-yl)quinazolin-6-yl)thiazol-2-yl) propan-2-ol], the pIC50 on EGFR L858R was 8.31; at EGFR (d746-750), 8.68; in test [1] it was 7.89.
With `COc1cc2ncnc(-c3cn(C)nc3-c3ccccc3)c2cc1-c1cn(C)nc1C` [Example 150, 6-(1,3-dimethyl-1H-pyrazol-4-yl)-7-methoxy-4-(1-methyl-3-phenyl-1H-pyrazol-4-yl)quinazoline], the values for the pIC50 (at EGFR L858R; on EGFR (d746-750); in test [1]) were 8.66, 8.92 and 8.82, respectively.
`COc1cc2ncnc(-c3cn(C)nc3-c3ccccc3)c2cc1-c1ccc(OC)c2n[nH]cc12` [Example 151, 7-methoxy-6-(7-methoxy-2H-indazol-4-yl)-4-(1-methyl-3-phenyl-1H-pyrazol-4-yl)quinazoline]: the figures for the pIC50 (at EGFR L858R; at EGFR (d746-750); in test [1]) were 8.09, 8.72 and 8.06, respectively.
As to `COc1cc2ncnc(-c3cn(C)nc3-c3ccccc3)c2nc1-c1ccc2c(c1)CNC2=O` [Example 152, 5-(7-methoxy-4-(1-methyl-3-phenyl-1H-pyrazol-4-yl)pyrido[3,2-d]pyrimidin-6-yl) isoindolin-1-one], the results for the pIC50 (on EGFR L858R; at EGFR (d746-750); in test [1]) were 8.70, 9.00 and 8.72, respectively.
Regarding `COc1cc2ncnc(-c3cn(C)nc3-c3ccccc3)c2nc1-c1ccc2c(c1)CN(C)C2=O` [Example 153, 5-(7-methoxy-4-(1-methyl-3-phenyl-1H-pyrazol-4-yl)pyrido[3,2-d]pyrimidin-6-yl)-2-methylisoindolin-1-one], the pIC50 on EGFR L858R is 9.00; on EGFR (d746-750) it was 9.30; in test [1], 9.05.
On to `COc1cc2ncnc(-c3cn(C)nc3-c3ccccc3)c2nc1-c1cccc2c1OCC(=O)N2` [Example 154, 8-(7-methoxy-4-(1-methyl-3-phenyl-1H-pyrazol-4-yl)pyrido[3,2-d]pyrimidin-6-yl)-2H-benzo[b][1,4]oxazin-3(4H)-one], for which the values for the pIC50 (at EGFR L858R; at EGFR (d746-750); in test [1]) were 8.42, 8.96 and 7.89, respectively.
Take `COC(=O)Nc1cc2c(-c3cn(C)nc3-c3ccccc3)ncnc2cc1OC` [Example 157, methyl (7-methoxy-4-(1-methyl-3-phenyl-1H-pyrazol-4-yl)quinazolin-6-yl)carbamate]: the values for the negative logarithm of the IC50 (pIC50) (at EGFR L858R; on EGFR (d746-750); in test [1]) were 9.00, 9.22 and 9.00, respectively.
For `CCOc1cc2ncnc(-c3cn(C)nc3-c3ccccc3)c2nc1NC1CCOCC1` [Example 158, 7-ethoxy-4-(1-methyl-3-phenyl-1H-pyrazol-4-yl)-N-(tetrahydro-2H-pyran-4-yl)pyrido[3,2-d]pyrimidin-6-amine], the pIC50 on EGFR L858R was 8.77; at EGFR (d746-750), 8.85; in test [1] it was 9.70.
With `COc1cc2ncnc(-c3cn(C)nc3-c3ccccc3F)c2cc1N1CCOCC1` [Example 159, 4-(4-(3-(2-fluorophenyl)-1-methyl-1H-pyrazol-4-yl)-7-methoxyquinazolin-6-yl)morpholine], the pIC50 is 8.52 at EGFR L858R, 8.82 on EGFR (d746-750) and 8.42 in test [1].
As for `COc1cc2ncnc(-c3cn(C)nc3-c3ccccc3)c2cc1N1CCOCC1` [Example 160, 4-(7-methoxy-4-(1-methyl-3-phenyl-1H-pyrazol-4-yl)quinazolin-6-yl)morpholine], the values for the pIC50 (at EGFR L858R; on EGFR (d746-750); in test [1]) were 7.70, 8.54 and 8.08, respectively.
As for `COc1cc2ncnc(-c3cn(C)nc3-c3ccccc3)c2cc1N1CC2(COC2)C1` [Example 161, 6-(7-methoxy-4-(1-methyl-3-phenyl-1H-pyrazol-4-yl)quinazolin-6-yl)-2-oxa-6-azaspiro[3.3]heptane], the pIC50 at EGFR L858R is 8.34; at EGFR (d746-750) it was 8.60; in test [1], 8.09.
In the case of `CCOc1cc2ncnc(-c3cn(C)nc3-c3ccccc3)c2cc1N1CCN(C)CC1` [Example 162, 7-ethoxy-4-(1-methyl-3-phenyl-1H-pyrazol-4-yl)-6-(4-methylpiperazin-1-yl)quinazoline], the figures for the pIC50 (at EGFR L858R; at EGFR (d746-750); in test [1]) were 8.15, 8.59 and 8.22, respectively.
As for `CCOc1cc2ncnc(-c3cn(C)nc3-c3ccccc3)c2cc1N1CCOCC1` [Example 163, 4-(7-ethoxy-4-(1-methyl-3-phenyl-1H-pyrazol-4-yl)quinazolin-6-yl)morpholine], the pIC50 at EGFR L858R was 8.44; at EGFR (d746-750), 8.85; in test [1], 8.26.
For the compound `COc1cc2ncnc(-c3cn(C)nc3-c3ccccc3)c2cc1N1CCC[C@H](O)C1` [Example 164, (S)-1-(7-methoxy-4-(1-methyl-3-phenyl-1H-pyrazol-4-yl)quinazolin-6-yl) piperidin-3-ol], the pIC50 on EGFR L858R was 8.54; at EGFR (d746-750), 8.77; in test [1], 8.19.
For `COc1cc2ncnc(-c3cn(C)nc3-c3ccccc3)c2cc1N1CCC[C@@H](O)C1` [Example 165, (R)-1-(7-methoxy-4-(1-methyl-3-phenyl-1H-pyrazol-4-yl)quinazolin-6-yl)piperidin-3-ol], in that order: 8.47, 8.77 and 7.99.
Take `COc1cc2ncnc(-c3cn(C)nc3-c3ccc(F)cc3F)c2cc1N1CCOCC1` [Example 166, 4-(4-(3-(2,4-difluorophenyl)-1-methyl-1H-pyrazol-4-yl)-7-methoxyquinazolin-6-yl)morpholine]: the pIC50 at EGFR L858R was 8.77; at EGFR (d746-750), 9.15; in test [1], 8.49.
`CCOc1cc2ncnc(-c3cn(C)nc3-c3ccccc3)c2cc1N1CC2CC(C1)O2` [Example 167, 3-(7-ethoxy-4-(1-methyl-3-phenyl-1H-pyrazol-4-yl)quinazolin-6-yl)-6-oxa-3-azabicyclo[3.1.1]heptane]: the pIC50 on EGFR L858R is 8.72; on EGFR (d746-750), 8.96; in test [1], 8.77.
In the case of `COc1cc2ncnc(-c3cn(CC(F)F)nc3-c3ccccc3)c2cc1N1CCOCC1` [Example 168, 4-(4-(1-(2,2-difluoroethyl)-3-phenyl-1H-pyrazol-4-yl)-7-methoxyquinazolin-6-yl)morpholine], the pIC50 was 8.82 on EGFR L858R, 9.00 at EGFR (d746-750) and 9.10 in test [1].
As to `CCn1cc(-c2ncnc3cc(OC)c(N4CCOCC4)cc23)c(-c2ccccc2)n1` [Example 169, 4-(4-(1-ethyl-3-phenyl-1H-pyrazol-4-yl)-7-methoxyquinazolin-6-yl)morpholine], the negative-log IC50 (pIC50) was 8.77 on EGFR L858R, 9.05 at EGFR (d746-750) and 8.72 in test [1].
